The values below come from ChEMBL document CHEMBL3046279, “Comparison of larvicidal, adulticidal and acaricidal activity of two geometrical butylidenephthalide isomers” (2006).

Molecules are shown by their SMILES. Active and inactive are the calls of the source. The rule behind the calls is not given here.

Assay [1] has as its system Drosophila melanogaster. Put plainly: Larvicidal activity against Drosophila melanogaster larvae assessed as mortality administered through diet after 8 days. Type of assay: functional.
Assay [2] concerns Drosophila melanogaster. In words: Adulticidal activity against Drosophila melanogaster […] assessed as mortality measured per adult. Type of assay: functional.
Assay [3] concerns Dermatophagoides farinae. In words: Acaricidal activity against Dermatophagoides farinae assessed as mortality after 24 hr relative to control. The format is functional.
Assay [4] relates to Tyrophagus putrescentiae. Put plainly: Acaricidal activity against Tyrophagus putrescentiae assessed as mortality after 24 hr. Type of assay: functional.
The subject of assay [5] is Dermatophagoides farinae. In words: Acaricidal activity against Dermatophagoides farinae assessed as mortality at 50 ug/cm2 after 24 hr relative to control. The format is functional.
The test system of assay [6] is Dermatophagoides farinae. Put plainly: Acaricidal activity against Dermatophagoides farinae assessed as mortality at 10 ug/cm2 after 24 hr relative to control. The format is functional.
Assay [7] relates to Tyrophagus putrescentiae. In words: Acaricidal activity against Tyrophagus putrescentiae assessed as mortality at 50 ug/cm2 after 24 hr relative to control. The format is functional.
Assay [8] concerns Tyrophagus putrescentiae. Put plainly: Acaricidal activity against Tyrophagus putrescentiae assessed as mortality at 10 ug/cm2 after 24 hr relative to control. The format is functional.
Assay [9] concerns Tyrophagus putrescentiae. Put plainly: Acaricidal activity against Tyrophagus putrescentiae assessed as mortality at 100 ug/cm2 after 24 hr relative to control. The format is functional.
For assay [10], the system named is Tyrophagus putrescentiae. In words: Acaricidal activity against Tyrophagus putrescentiae assessed as mortality at 30 ug/cm2 after 24 hr relative to control. The format is functional.
The test system of assay [11] is Dermatophagoides farinae. In words: Acaricidal activity against Dermatophagoides farinae assessed as mortality at 40 ug/cm2 after 24 hr relative to control. The format is functional.
Assay [12] deals with Dermatophagoides farinae. In words: Acaricidal activity against Dermatophagoides farinae assessed as mortality at 20 ug/cm2 after 24 hr relative to control. The format is functional.
The subject of assay [13] is Dermatophagoides farinae. In words: Acaricidal activity against Dermatophagoides farinae assessed as mortality at 30 ug/cm2 after 24 hr relative to control. Type of assay: functional.
The next assay concerns Ctenocephalides felis. In words: Insecticidal activity against adult Ctenocephalides felis at 200 ug/cm2. The format is functional, organism-based.
In assay [14] the test system is Drosophila melanogaster. In words: Ratio of rotenone LD50 to compound LD50 for adult Drosophila melanogaster. Type of assay: functional.
Assay [15] deals with Dermatophagoides farinae. Put plainly: Ratio of N,N-diethyl-m-toulamide (DEET) LC50 to compound LC50 for Dermatophagoides farinae. The format is functional.
Assay [16] deals with Tyrophagus putrescentiae. In words: Ratio of N,N-diethyl-m-toulamide (DEET) LC50 to compound LC50 for Tyrophagus putrescentiae. The format is functional.
Assay [17] concerns Tyrophagus putrescentiae. Put plainly: Acaricidal activity against Tyrophagus putrescentiae assessed as mortality at 2.5 ug/cm2 after 24 hr relative to control. Type of assay: functional.
Assay [18] deals with Tyrophagus putrescentiae. In words: Acaricidal activity against Tyrophagus putrescentiae assessed as mortality at 20 ug/cm2 after 24 hr relative to control. Type of assay: functional.
In assay [19] the test system is Drosophila melanogaster. Put plainly: Ratio of rotenone LC50 to compound LC50 for Drosophila melanogaster larvae. Type of assay: functional.
Assay [20] has as its system Dermatophagoides farinae. In words: Acaricidal activity against Dermatophagoides farinae assessed as mortality at 2.5 ug/cm2 after 24 hr relative to control. The format is functional.
In assay [21] the test system is Dermatophagoides farinae. Put plainly: Acaricidal activity against Dermatophagoides farinae assessed as mortality at 5 ug/cm2 after 24 hr relative to control. Type of assay: functional.
In assay [22] the test system is Tyrophagus putrescentiae. In words: Acaricidal activity against Tyrophagus putrescentiae assessed as mortality at 5 ug/cm2 after 24 hr relative to control. The format is functional.

As to `C=C(C)[C@H]1Cc2c(ccc3c2O[C@@H]2COc4cc(OC)c(OC)cc4[C@@H]2C3=O)O1` [ROTENONE], in the assay with Drosophila melanogaster [1], the LC50 is 20 µM. In addition, the LD50 with Drosophila melanogaster [2] turned out to be 3.68 µg.
Take `CCN(CC)C(=O)c1cccc(C)c1` [DIETHYLTOLUAMIDE]: the LC50 was determined as 12.98 microg/cm2 in the assay on Dermatophagoides farinae [3] and 16.28 microg/cm2 in the assay with Tyrophagus putrescentiae [4]. Moreover, the mortality at 50 µg/cm2 in the assay on Dermatophagoides farinae [5] and with Tyrophagus putrescentiae [7] was 100% in each case. Moreover, the mortality at 10 µg/cm2 in the assay on Dermatophagoides farinae [6] is 33.2%; with Tyrophagus putrescentiae [8] it was 20.8%. Moreover, the mortality at 100 µg/cm2 in the assay on Tyrophagus putrescentiae [9] was 100%. The results for the mortality at 30 µg/cm2 in the assay with Tyrophagus putrescentiae [10] and in the assay on Dermatophagoides farinae [13] were 81.1% and 100%, respectively. Moreover, the mortality at 40 µg/cm2 in the assay with Dermatophagoides farinae [11] was determined as 100%. Moreover, the mortality at 20 µg/cm2 in the assay on Dermatophagoides farinae [12] came out at 72.2%.
For `CCC/C=C1/OC(=O)c2ccccc21` [(E)-BUTYLIDENEPHTHALIDE], the figures for the LC50 with Dermatophagoides farinae [3], in the assay on Tyrophagus putrescentiae [4] and in the assay on Drosophila melanogaster [1] were 4.67 microg/cm2, 25.56 microg/cm2 and 2070 µM, respectively. Besides, the outcome in the assay on Ctenocephalides felis was inactive. The Ratio in the assay with Drosophila melanogaster [14] worked out at 3.91. Further, the values for the RatioLC50 with Dermatophagoides farinae [15], in the assay on Tyrophagus putrescentiae [16] and in the assay on Drosophila melanogaster [19] were 2.78, 0.64 and 0.01, respectively. The results for the mortality at 50 µg/cm2 with Dermatophagoides farinae [5] and in the assay on Tyrophagus putrescentiae [7] were 100% and 57.2%, respectively. In addition, the LD50 in the assay with Drosophila melanogaster [2] was 0.94 µg. Further, the mortality at 10 µg/cm2 was 94.7% in the assay on Dermatophagoides farinae [6] and 33% with Tyrophagus putrescentiae [8]. The mortality at 2.5 µg/cm2 in the assay with Tyrophagus putrescentiae [17] turned out to be 12.3%; with Dermatophagoides farinae [20], 12.2%. The figures for the mortality at 20 µg/cm2 with Tyrophagus putrescentiae [18] and with Dermatophagoides farinae [12] were 52.9% and 100%, respectively. Also, the mortality at 5 µg/cm2 in the assay on Dermatophagoides farinae [21] was 51.6%.
For `CCC/C=C1\OC(=O)c2ccccc21` [Z-butylidenephthalide], the LC50 with Dermatophagoides farinae [3] came to 5.76 microg/cm2; in the assay with Tyrophagus putrescentiae [4] it was 20.37 microg/cm2; with Drosophila melanogaster [1], 940 µM. In addition, the outcome in the assay on Ctenocephalides felis was inactive. For the same molecule, in the assay with Drosophila melanogaster [14], the Ratio came out at 4.38. In addition, the results for the RatioLC50 with Dermatophagoides farinae [15], in the assay with Tyrophagus putrescentiae [16] and in the assay on Drosophila melanogaster [19] were 2.25, 0.8 and 0.023, respectively. The values for the mortality at 50 µg/cm2 in the assay on Dermatophagoides farinae [5] and in the assay with Tyrophagus putrescentiae [7] were 100% and 74.1%, respectively. The LD50 in the assay with Drosophila melanogaster [2] turned out to be 0.84 µg. For the same molecule, the results for the mortality at 10 µg/cm2 in the assay on Dermatophagoides farinae [6] and in the assay on Tyrophagus putrescentiae [8] were 77.8% and 22.8%, respectively. The mortality at 2.5 µg/cm2 is 7.8% in the assay with Tyrophagus putrescentiae [17] and 15.6% with Dermatophagoides farinae [20]. The mortality at 20 µg/cm2 in the assay with Tyrophagus putrescentiae [18] was 56.3%; with Dermatophagoides farinae [12], 100%. The mortality at 5 µg/cm2 in the assay on Tyrophagus putrescentiae [22] turned out to be 12.9%; in the assay on Dermatophagoides farinae [21] it was 32.1%.

Broadly, the mortality is the share of the test organisms that died.
